Assays:
[1] = test system: bone metastases in prostate cancer; conditions: palliative treatment of bone metastases in prostate cancer; cited from earlier work
[2] = previous dosimetry studies in patients; cited from earlier work
[3] = test system: tumor; conditions: cited from earlier work
[4] = reported value; cited from earlier work
[5] = 177Lu-PSMA-617 (7.4 GBq), Violet et al; cited from earlier work
[6] = test system: PSMA-expressing PC3-PIP cells; test: Cellular uptake and internalization in PSMA-expressing PC3-PIP cells; type: cell-based
Excerpt: The PSMA binding scaffold of PSMA binds irreversibly to the extracellular enzymatic domain of PSMA leading to rapid internalization by PSMA-expressing cancer cells. Tumor cell uptake of CTT1403 is ˜84% after just 2½ hours (FIG. 1), compared to less than 40% tumor cell uptake of ^177Lu-PSMA-617 (structure shown below), in PSMA-expressing PC3-PIP cells.
Given that 99% of cell bound CTT1403 is internalized, compared to just 15% of ^177Lu-PSMA-617, targeting by CTT1403 is expected to confer a significant therapeutic advantage. This greater uptake will allow treatment of smaller tumors for a longer time. Both irreversible binding and cellular internalization increases exposure of target tissue to the therapeutic agent. Greater accumulation in the target tissue will permit a lower efficacious dose and/or dosing frequency, thus reducing a patient's total clinical exposure to the radionuclide and improving the therapeutic index.

[7] = 177Lu-PSMA-617 (7.4 GBq), Violet et al

Row | Structure (SMILES) | average increase in survival [1] | potential dose limited organs [2] | Tumor (PSA < 50%), Dose Gy/GBq [3, 7] [Gy/GBq] | Tumor (PSA < 50%), Mean Dose for (Gy) [3, 7] [Gy] | Tumor (PSA ≥ 50%), Dose Gy/GBq [3, 7] [Gy/GBq] | Tumor (PSA ≥ 50%), Mean Dose for (Gy) [3, 7] [Gy] | tumor dose delivered that is associated with efficacy (reduction of circulating PSA) ([3]; over several cycles of therapy, published studies) | half-life during the elimination phase [4] [h] | initial half-life during the distribution phase [4] [min] | Kidney dose, Dose Gy/GBq [5] [Gy/GBq] | Kidney dose, Mean Dose for (Gy) [5] [Gy] | cell bound agent that is internalized ([6]; PSMA-expressing PC3-PIP cells) [%] | Tumor cell uptake ([6]; after 2½ hours, PSMA-expressing PC3-PIP cells (FIG. 1))
1 | [Cl][223Ra][Cl] [Radium-223 chloride] | 3-4 months |  |  |  |  |  |  |  |  |  |  |  | 
2 | O=C([O-])CN1CCN(CC(=O)[O-])CCN(CC(=O)NCC2CCC(C(=O)N[C@@H](Cc3ccc4ccccc4c3)C(=O)NCCCC[C@H](NC(=O)N[C@@H](CCC(=O)O)C(=O)O)C(=O)O)CC2)CCN(CC(=O)[O-])CC1.[177Lu+3] (stereo partly shown) [177Lu-PSMA-617] |  | salivary glands, kidneys and bone marrow | 1.41 | 10.4 | 1.91 | 14.1 | 10-14 Gy | 10.8 ± 2.5 | 9.6 ± 5.4 | 0.77 | 3.2 | 15 | less than 40%

From patent publication US20230064292A1, “METHODS OF TREATING PSMA-POSITIVE CANCER USING RADIONUCLIDE THERAPY” (priority 2020, published 2023)
